Data reported in patent US20240226115A1, “AXL INHIBITOR COMPOUNDS” (ARCUS BIOSCIENCES, INC., priority 2021, published 2024).

How the values were obtained:
recombinant human TYRO3 = target: T1, recombinant human TYRO3 (Homo sapiens, UniProt Q06418); test: HTRF KinEASE-TK biochemical potency, TYRO3; settings: 1 nM TYRO3, 700 μM ATP
T1 construct: purchased Invitrogen
T1 sequence (Q06418 41-890): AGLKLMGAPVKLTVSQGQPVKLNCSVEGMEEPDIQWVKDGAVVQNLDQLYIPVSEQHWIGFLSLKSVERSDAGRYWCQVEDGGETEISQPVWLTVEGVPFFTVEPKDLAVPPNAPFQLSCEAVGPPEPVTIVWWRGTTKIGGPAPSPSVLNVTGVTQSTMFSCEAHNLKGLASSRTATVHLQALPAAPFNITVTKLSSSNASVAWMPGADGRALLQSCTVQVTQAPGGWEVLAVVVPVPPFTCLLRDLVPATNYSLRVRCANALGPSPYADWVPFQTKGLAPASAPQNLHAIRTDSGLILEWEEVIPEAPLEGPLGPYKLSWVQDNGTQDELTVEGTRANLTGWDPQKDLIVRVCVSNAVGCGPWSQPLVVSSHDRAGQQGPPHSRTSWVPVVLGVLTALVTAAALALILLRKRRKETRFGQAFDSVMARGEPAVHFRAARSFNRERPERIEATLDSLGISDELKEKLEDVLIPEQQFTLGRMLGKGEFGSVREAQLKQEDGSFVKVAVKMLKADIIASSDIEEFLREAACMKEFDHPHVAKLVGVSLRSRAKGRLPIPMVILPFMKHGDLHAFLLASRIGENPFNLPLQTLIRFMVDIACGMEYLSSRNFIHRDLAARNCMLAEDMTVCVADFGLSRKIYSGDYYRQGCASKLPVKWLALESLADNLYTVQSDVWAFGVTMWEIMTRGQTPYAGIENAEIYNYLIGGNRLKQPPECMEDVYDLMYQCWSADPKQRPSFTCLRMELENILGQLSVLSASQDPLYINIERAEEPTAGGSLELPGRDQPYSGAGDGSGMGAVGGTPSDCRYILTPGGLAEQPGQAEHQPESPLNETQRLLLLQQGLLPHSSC
In short: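 Enzyme preincubated with compound 1 h at RT; final 5 nM AXL or 1 nM TYRO3/MER, 800 nM TK substrate-biotin, 700 μM ATP, HEPES pH 7.4, MgCl2, 1% DMSO, 2 h at RT. HTRF 665/620 ratio read after streptavidin-XL665/cryptate antibody detection; percent activity relative to DMSO and pre-stopped controls.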

recombinant human MER = target: T2, recombinant human MER (Homo sapiens, UniProt Q12866); test: HTRF KinEASE-TK biochemical potency, MER; settings: 1 nM MER, 700 μM ATP
T2 construct: purchased Invitrogen
T2 sequence (Q12866 21-999): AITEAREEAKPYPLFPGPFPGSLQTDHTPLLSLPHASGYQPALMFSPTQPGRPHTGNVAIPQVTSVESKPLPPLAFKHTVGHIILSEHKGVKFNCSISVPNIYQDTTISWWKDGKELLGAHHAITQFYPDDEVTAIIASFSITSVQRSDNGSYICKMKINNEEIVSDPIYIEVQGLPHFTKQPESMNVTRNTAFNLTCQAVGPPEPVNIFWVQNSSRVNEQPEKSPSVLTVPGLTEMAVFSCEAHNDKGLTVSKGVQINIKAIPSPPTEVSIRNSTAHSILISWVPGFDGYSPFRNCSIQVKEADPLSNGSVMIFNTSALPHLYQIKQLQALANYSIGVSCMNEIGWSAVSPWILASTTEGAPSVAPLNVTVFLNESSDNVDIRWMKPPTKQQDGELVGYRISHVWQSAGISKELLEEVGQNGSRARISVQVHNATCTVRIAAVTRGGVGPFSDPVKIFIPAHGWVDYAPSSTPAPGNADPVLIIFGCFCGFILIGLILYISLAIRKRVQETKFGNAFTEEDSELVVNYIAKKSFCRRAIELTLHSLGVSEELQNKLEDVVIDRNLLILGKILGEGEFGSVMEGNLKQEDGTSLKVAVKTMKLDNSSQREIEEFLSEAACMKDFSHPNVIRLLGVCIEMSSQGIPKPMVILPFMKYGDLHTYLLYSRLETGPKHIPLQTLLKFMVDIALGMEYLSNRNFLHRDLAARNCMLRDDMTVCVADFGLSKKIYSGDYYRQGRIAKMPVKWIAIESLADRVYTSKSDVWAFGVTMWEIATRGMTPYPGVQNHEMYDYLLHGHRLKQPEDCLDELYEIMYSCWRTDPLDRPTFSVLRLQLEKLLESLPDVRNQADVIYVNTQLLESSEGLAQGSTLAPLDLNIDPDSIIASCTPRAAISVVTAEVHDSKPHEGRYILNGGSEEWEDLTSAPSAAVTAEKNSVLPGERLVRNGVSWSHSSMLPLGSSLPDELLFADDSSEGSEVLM
Procedure: Purified recombinant human AXL, TYRO3 and MER proteins were purchased from Invitrogen™. 10 nM AXL, 2 nM TYRO3 or MER were incubated with varying concentrations of compounds in 50 mM HEPES, pH 7.4, 10 mM MgCl2, 0.01% BSA, 1 mM DTT and 2% DMSO in a total volume of 20 μl in a 384-well microplate (Corning™ #3640) at RT for 1 h. The AXL, TYRO3 and MER enzymatic reaction was initiated by transferring 10 μl of enzyme and compound mixture into 10 μl of 1.6 μM TK Substrate-biotin (HTRF® KinEASE-TK kit, Cisbio) and 1400 μM ATP pre-incubated in 50 mM HEPES, pH 7.4, 10 mM MgCl2, 0.01% BSA, 1 mM DTT in a 384-well microplate (Corning™ #3640) at RT, giving the final reaction conditions: 5 nM AXL, 1 nM TYRO3 or MER, 800 nM TK Substrate-biotin and 700 μM ATP in 50 mM HEPES, pH 7.4, 10 mM MgCl2, 0.01% BSA, 1 mM DTT and 1% DMSO with varying concentrations of compounds. Following 2 h incubation at RT, the AXL, TYRO3 and MER enzymatic reaction was stopped by transfer of 10 μl of reaction into 10 μl of detection mix (400 nM Streptavidin-XL665, 200-fold dilution TK Antibody-Cryptate and detection buffer, HTRF® KinEASE-TK kit, Cisbio) in a white 384-well microplate (Perkin Elmer, OptiPlate 384). After 1 h incubation at RT, the plate was put into a plate reader (Evision) to read at 665/620 nm (acceptor/donor) for HTRF. The value of the DMSO blank (MIN inhibition=100% activity) was used as a negative control. The positive control was established by adding 5 μl of enzyme and DMSO mixture into 10 μl of detection mix followed by addition of 5 μl of TK Substrate-biotin and ATP mixture (MAX inhibition=0% activity). To calculate the percent activity, Equation 1 was used. Ratio665/620 is the value at a given compound concentration: […]

Structure (SMILES) | IC50 (recombinant human TYRO3) [nM] | IC50 (recombinant human MER) [nM]
CC1(C)NS(=O)(=O)c2cc(-c3n[nH]c4ncc(-c5ccc6c(c5)CCC(N5CCCC5)CC6)cc34)ccc21 (stereo not drawn) [Example 32, 3,3-Dimethyl-6-{5-[7-(pyrrolidin-1-yl)-6,7,8,9-tetrahydro-5H-benzo[7]annulen-2-yl]-1H-pyrazolo[3,4-b]pyridin-3-yl}-2,3-dihydro-1λ^6,2-benzothiazole-1,1-dione] | < 100 | < 100
CC1(C)NS(=O)(=O)c2cc(-c3n[nH]c4ncc(-c5ccc6c(c5)CCC(N5CCC[C@@H]5CO)CC6)cc34)ccc21 (stereo partly drawn) [Example 34, 6-(5-{7-[(2R)-2-(Hydroxymethyl)pyrrolidin-1-yl]-6,7,8,9-tetrahydro-5H-benzo[7]annulen-2-yl}-1H-pyrazolo[3,4-b]pyridin-3-yl)-3,3-dimethyl-2,3-dihydro-1λ^6,2-benzothiazole-1,1-dione] | < 100 | < 100
CC1(C)COc2cc(-c3n[nH]c4ncc(-c5ccc6c(c5)CCC(N5CCCC5)CC6)cc34)ccc2C(=O)N1 (stereo not drawn) [Example 35, 3,3-Dimethyl-8-{5-[7-(pyrrolidin-1-yl)-6,7,8,9-tetrahydro-5H-benzo[7]annulen-2-yl]-1H-pyrazolo[3,4-b]pyridin-3-yl}-2,3,4,5-tetrahydro-1,4-benzoxazepin-5-one] | < 100 | < 100
C[C@H]1CCCN1C1Cc2ccc(-c3cnc4[nH]nc(-c5ccc6c(c5)OCC(C)(C)NC6=O)c4c3)cc2C1 (stereo partly drawn) [Example 39, 3,3-Dimethyl-8-(5-{2-[(2S)-2-methylpyrrolidin-1-yl]-2,3-dihydro-1H-inden-5-yl}-1H-pyrazolo[3,4-b]pyridin-3-yl)-2,3,4,5-tetrahydro-1,4-benzoxazepin-5-one] | < 100 | 100 to 1000

Now from value to compound:

IC50 (recombinant human TYRO3) [nM] | IC50 (recombinant human MER) [nM] | Structure (SMILES)
< 100 | < 100 | C[C@@H]1CCCN1C1CCc2ccc(-c3cnc4[nH]nc(-c5ccc6c(c5)S(=O)(=O)NC6(C)C)c4c3)cc2CC1 (stereo partly drawn) [Example 33, 3,3-Dimethyl-6-(5-{7-[(2R)-2-methylpyrrolidin-1-yl]-6,7,8,9-tetrahydro-5H-benzo[7]annulen-2-yl}-1H-pyrazolo[3,4-b]pyridin-3-yl)-2,3-dihydro-1λ^6,2-benzothiazole-1,1-dione]
< 100 | < 100 | C[C@@H]1CCCN1C1CCc2ccc(-c3cnc4[nH]nc(-c5ccc6c(c5)OCC5(CC5)NC6=O)c4c3)cc2CC1 (stereo partly drawn) [Example 36, 8-(5-{7-[(2R)-2-Methylpyrrolidin-1-yl]-6,7,8,9-tetrahydro-5H-benzo[7]annulen-2-yl}-1H-pyrazolo[3,4-b]pyridin-3-yl)-4,5-dihydro-2H-spiro[1,4-benzoxazepine-3,1′-cyclopropan]-5-one]
< 100 | < 100 | C[C@@H]1CCCN1C1CCc2ccc(-c3cnc4[nH]nc(-c5ccc6c(c5)OCC5(CCC5)NC6=O)c4c3)cc2CC1 (stereo partly drawn) [Example 37, 8-(5-{7-[(2R)-2-Methylpyrrolidin-1-yl]-6,7,8,9-tetrahydro-5H-benzo[7]annulen-2-yl}-1H-pyrazolo[3,4-b]pyridin-3-yl)-4,5-dihydro-2H-spiro[1,4-benzoxazepine-3,1′-cyclobutan]-5-one]
< 100 | 100 to 1000 | C[C@@H]1CCCN1C1CCc2ccc(-c3cnc4[nH]nc(-c5ccc6c(c5)C(=O)NC6(C)C)c4c3)cc2CC1 (stereo partly drawn) [Example 38, 3,3-Dimethyl-6-(5-{7-[(2R)-2-methylpyrrolidin-1-yl]-6,7,8,9-tetrahydro-5H-benzo[7]annulen-2-yl}-1H-pyrazolo[3,4-b]pyridin-3-yl)-2,3-dihydro-1H-isoindol-1-one]
< 100 | 100 to 1000 | Cc1cc2c(cc1-c1n[nH]c3ncc(-c4ccc5c(c4)CCC(N4CCC[C@H]4C)CC5)cc13)OCCNC2=O (stereo partly drawn) [Example 40, 7-Methyl-8-(5-{7-[(2R)-2-methylpyrrolidin-1-yl]-6,7,8,9-tetrahydro-5H-benzo[7]annulen-2-yl}-1H-pyrazolo[3,4-b]pyridin-3-yl)-2,3,4,5-tetrahydro-1,4-benzoxazepin-5-one]
